Data: US6777564B2, “Anthraquinone compound” (Industrial Technology Research Institute, priority 2001, dated 2004)
≈ marks a conversion by molar mass, not a printed value. Like-named read-outs stand apart in the source and are kept apart here.

Key:
BC-1: human breast cell = test: anti-cancer activity test (cytotoxicity), BC 1; type: cell-based; settings: BC 1 cells; for IC50: Homo sapiens, BC1
[1] = test system: HT-1088: human fibrosarcoma cell; test: anti-cancer activity test (cytotoxicity), HT; type: cell-based; settings: HT cells; for IC50: Homo sapiens
Lu1: human lung cell = test: anti-cancer activity test (cytotoxicity), Lu1; type: cell-based; settings: Lu1 cells; for IC50: Homo sapiens
[2] = test system: Mel2: human melanoma cell; test: anti-cancer activity test (cytotoxicity), Mel2; type: cell-based; settings: Mel2 cells; for IC50: Homo sapiens
Col2: human colon cell = test: anti-cancer activity test (cytotoxicity), Col2; type: cell-based; settings: Col2 cells; for IC50: Homo sapiens
[3] = test system: KB: human oral epidormaid Carcinama cell; test: anti-cancer activity test (cytotoxicity), KB; type: cell-based; settings: KB cells; for IC50: Homo sapiens
Procedure: (§1) The compounds were further screened on 60 human cancer cell lines by Developmental Therapeutics Program Human Tumor Cell Line Screen set up by the National Cancer Institute of the U. S. A. The screening procedures are described briefly hereinafter. Cell suspensions that were diluted according to the particular cell type and the expected target cell density (5000-40,000 cells per well based on cell growth characteristics) were added by pipet (100 μL) into 96-well microtiterplates. Inoculates were allowed a preincubation period of 24 hours at 37° C. for stabilization. Dilutions at twice the intended test concentration were added in 100 μL aliquots to the microtiter plate wells at time zero. Usually, test compounds were evaluated at five 10-fold dilutions. In routine testing, the highest well concentration was 10^−4 M, but for the standard agents the highest well concentration used depended on the agent. Incubations lasted for 48 hours in 5% CO2 atmosphere and 100% humidity. The cells were assayed by using the sulforhodamine B assay. A plate reader was used to read the optical densities, and a microcomputer processed the optical densities into the special concentration parameters. The results of these tests with representative compounds of the present invention appear in Table 1 and 2

[4] = test system: KB-V: drug resisteant KB cell; test: anti-cancer activity test (cytotoxicity), KB-V; type: cell-based, human; settings: KB-V cells; for IC50: Homo sapiens
[5] = test system: P-388: mouse lymphaid Macrophage cell; test: anti-cancer activity test (cytotoxicity), P-388; type: cell-based; settings: P-388 cells; for IC50: Mus musculus, P388
[6] = test system: A431: human squamous cell; test: anti-cancer activity test (cytotoxicity), A431; type: cell-based; settings: A431 cells; for IC50: Homo sapiens, A-431
[7] = test system: LNCaP: human prostate cell; test: anti-cancer activity test (cytotoxicity), LNCaP; type: cell-based; settings: LNCaP cells; for IC50: Homo sapiens
[8] = test system: ZR-75-1: human breast cell; test: anti-cancer activity test (cytotoxicity), ZR-75-1; type: cell-based; settings: ZR-75-1 cells; for IC50: Homo sapiens
U373: human glioma cell = test: anti-cancer activity test (cytotoxicity), U373; type: cell-based; settings: U373 cells; for IC50: Homo sapiens, U373 MG
HIV-1 RT(p66) = target: T1, HIV-1 RT(p66) (Human immunodeficiency virus type 1 group M subtype B, UniProt P04585); test: anti-virus activity test, HIV-1 RT(p66) inhibition; type: biochemical; settings: for activity inhibition (%) / inhibition at 200 µg/mL: at 200 μg/ml; for activity inhibition (%) / IC50 / inhibition at 200 µg/mL: HIV-1 RT(p66); for activity inhibition / anti-virus ability (in words): at the concentration of 200 μg/ml
T1 construct: 1-10 at 200 μg/ml to HIV-1 RT(p66)

human cancer cell lines = test: anti-cancer activity test, overall over the cell line panel; type: cell-based; settings: summary of Table 1
Procedure: as §1

[9] = read-out: IC50 (μg/ml) (converted)

Compound | IC50 BC 1 (BC-1: human breast cell) | IC50 HT [1] | IC50 Lu1 (Lu1: human lung cell) | activity inhibition / anti-virus ability (in words) (HIV-1 RT(p66)) | IC50 (BC-1: human breast cell) | IC50 [1] | IC50 (Lu1: human lung cell) | IC50 [2] | IC50 (Col2: human colon cell) | IC50 [3] | IC50 ([4]; with vinblastine (+VLB)) | IC50 ([4]; without vinblastine (−VLB)) | IC50 [5] | IC50 [6] | IC50 [7] | IC50 [8] | IC50 (U373: human glioma cell) | IC50 (HIV-1 RT(p66); [9]) | inhibition at 200 µg/mL (HIV-1 RT(p66)) | cytotoxic activity to cancer cell lines (in words) (human cancer cell lines) | also measured
1-benzyl carbamidoacetamidoanthraquinone [Example 1] | >20 µg/mL | 13.9 µg/mL | >20 µg/mL | anti-virus ability but not so strong as the others |  |  |  |  |  |  |  |  |  |  |  |  |  |  |  |  | IC50 Mel2 [2]: >20 µg/mL; IC50 Col2 (Col2: human colon cell): >20 µg/mL; IC50 KB [3]: >20 µg/mL; IC50 KB-V (+VLB) ([4]; with vinblastine (+VLB)): 3.8 µg/mL; IC50 KB-V (−VLB) ([4]; without vinblastine (−VLB)): >20 µg/mL; IC50 P-388 [5]: >5 µg/mL; IC50 A431 [6]: >20 µg/mL; IC50 LNCaP [7]: 14.7 µg/mL; IC50 ZR-75-1 [8]: >20 µg/mL; IC50 U373 (U373: human glioma cell): >20 µg/mL; activity inhibition (%) (HIV-1 RT(p66)): 47.0%
2-Benzyl Carbamidoacetamidoanthraquinone [Example 9] | 6.4 µg/mL | 8.3 µg/mL | 9.6 µg/mL | anti-virus ability but not so strong as the others |  |  |  |  |  |  |  |  |  |  |  |  |  |  |  |  | IC50 Mel2 [2]: 15.1 µg/mL; IC50 Col2 (Col2: human colon cell): 9.6 µg/mL; IC50 KB [3]: 19.2 µg/mL; IC50 KB-V (+VLB) ([4]; with vinblastine (+VLB)): 1.4 µg/mL; IC50 KB-V (−VLB) ([4]; without vinblastine (−VLB)): >20 µg/mL; IC50 P-388 [5]: >5 µg/mL; IC50 A431 [6]: 1.7 µg/mL; IC50 LNCaP [7]: >20 µg/mL; IC50 ZR-75-1 [8]: 6.4 µg/mL; IC50 U373 (U373: human glioma cell): 4.7 µg/mL; activity inhibition (%) (HIV-1 RT(p66)): 53.4%
4-amino-1-benzyl Carbamidoacetamidoanthraquinone [Example 5] | >20 µg/mL | >20 µg/mL | >20 µg/mL | anti-virus ability but not so strong as the others |  |  |  |  |  |  |  |  |  |  |  |  |  |  |  |  | IC50 Mel2 [2]: >20 µg/mL; IC50 Col2 (Col2: human colon cell): >20 µg/mL; IC50 KB [3]: >20 µg/mL; IC50 KB-V (+VLB) ([4]; with vinblastine (+VLB)): 2.9 µg/mL; IC50 KB-V (−VLB) ([4]; without vinblastine (−VLB)): >20 µg/mL; IC50 P-388 [5]: >5 µg/mL; IC50 A431 [6]: >20 µg/mL; IC50 LNCaP [7]: >20 µg/mL; IC50 ZR-75-1 [8]: >20 µg/mL; IC50 U373 (U373: human glioma cell): >20 µg/mL; activity inhibition (%) (HIV-1 RT(p66)): 23.0%
N=C(N)NCC(=O)Nc1ccc(N)c2c1C(=O)c1ccccc1C2=O [Example 2, 4-amino-1-guanido acetamidoanthraquinone] |  |  |  | excellent effect on activity inhibition | 1.6 µg/mL (≈ 4.74 µM) | 2 µg/mL (≈ 5.93 µM) | 3.1 µg/mL (≈ 9.19 µM) | 4.4 µg/mL (≈ 13 µM) | 4.2 µg/mL (≈ 12.5 µM) | 1.2 µg/mL (≈ 3.56 µM) | 16 µg/mL (≈ 47.4 µM) | > 20 µg/mL | > 5 µg/mL | 0.4 µg/mL (≈ 1.19 µM) | 4.1 µg/mL (≈ 12.2 µM) | 3.4 µg/mL (≈ 10.1 µM) | 0.6 µg/mL (≈ 1.78 µM) | 25.8 µM | 99.5% | more effective to most cancer cell lines | 
N=C(N)NCC(=O)Nc1cccc2c1C(=O)c1cccc(N)c1C2=O [Example 3, 5-amino-1-guanido acetamidoanthraquinone] |  |  |  | excellent effect on activity inhibition | 3 µg/mL (≈ 8.89 µM) | 2.5 µg/mL (≈ 7.41 µM) | 9.3 µg/mL (≈ 27.6 µM) | 12 µg/mL (≈ 35.6 µM) | 4.7 µg/mL (≈ 13.9 µM) | 4.2 µg/mL (≈ 12.5 µM) | 13.2 µg/mL (≈ 39.1 µM) | > 20 µg/mL | > 5 µg/mL | 0.2 µg/mL (≈ 0.593 µM) | 9 µg/mL (≈ 26.7 µM) | 1.7 µg/mL (≈ 5.04 µM) | 1 µg/mL (≈ 2.96 µM) | 20.5 µM | 99.6% | more effective to most cancer cell lines | 
N=C(N)NCC(=O)Nc1ccc2c(c1)C(=O)c1ccccc1C2=O [Example 4, 2-guanidinoacetamido anthraquinone] | 4.9 µg/mL (≈ 15.2 µM) | 2.1 µg/mL (≈ 6.52 µM) | 14.1 µg/mL (≈ 43.7 µM) | excellent effect on activity inhibition |  |  |  |  |  |  |  |  |  |  |  |  |  |  |  | more effective to most cancer cell lines | IC50 Mel2 [2]: 9.8 µg/mL (≈ 30.4 µM); IC50 Col2 (Col2: human colon cell): 12.1 µg/mL (≈ 37.5 µM); IC50 KB [3]: 2.9 µg/mL (≈ 9 µM); IC50 KB-V (+VLB) ([4]; with vinblastine (+VLB)): 7.5 µg/mL (≈ 23.3 µM); IC50 KB-V (−VLB) ([4]; without vinblastine (−VLB)): >20 µg/mL; IC50 P-388 [5]: >5 µg/mL; IC50 A431 [6]: 0.8 µg/mL (≈ 2.48 µM); IC50 LNCaP [7]: 12.5 µg/mL (≈ 38.8 µM); IC50 ZR-75-1 [8]: 3.6 µg/mL (≈ 11.2 µM); IC50 U373 (U373: human glioma cell): 0.88 µg/mL (≈ 2.73 µM); IC50 (HIV-1 RT(p66)): 18.9 µg/mL; activity inhibition (%) (HIV-1 RT(p66)): 99.4%
N=C(N)NCC(=O)Nc1ccc2c(c1N)C(=O)c1ccccc1C2=O [Example 6, 1-amino-2-guanido acetamidoanthraquinone] |  |  |  | excellent effect on activity inhibition | 7.8 µg/mL (≈ 23.1 µM) | 4.5 µg/mL (≈ 13.3 µM) | > 20 µg/mL | > 20 µg/mL | > 20 µg/mL | 5.9 µg/mL (≈ 17.5 µM) | 7.9 µg/mL (≈ 23.4 µM) | > 20 µg/mL | > 5 µg/mL | 0.9 µg/mL (≈ 2.67 µM) | > 20 µg/mL | 6.9 µg/mL (≈ 20.5 µM) | 2 µg/mL (≈ 5.93 µM) | 119 µM | 99.7% | more effective to most cancer cell lines | 
N=C(N)NCC(=O)Nc1ccc2c(c1)C(=O)c1ccc(N)cc1C2=O [Example 7, 6-amino-2-guanidoacetamidoanthraquinone] |  |  |  | excellent effect on activity inhibition | 3.6 µg/mL (≈ 10.7 µM) | 1.6 µg/mL (≈ 4.74 µM) | > 20 µg/mL | 6.8 µg/mL (≈ 20.2 µM) | 3.2 µg/mL (≈ 9.49 µM) | 1.2 µg/mL (≈ 3.56 µM) | > 20 µg/mL | > 20 µg/mL | 1.1 µg/mL (≈ 3.26 µM) | 0.6 µg/mL (≈ 1.78 µM) | 6.3 µg/mL (≈ 18.7 µM) | 3.3 µg/mL (≈ 9.78 µM) | 0.4 µg/mL (≈ 1.19 µM) | 37.1 µM | 99.7% | more effective to most cancer cell lines | 
N=C(N)NCC(=O)Nc1ccc2c(c1)C(=O)c1ccc(NC(=O)CNC(=N)N)cc1C2=O [Example 8, 2,6-di(guanidinoacetamido)anthraquinone] |  |  |  |  | 5 µg/mL (≈ 11.5 µM) | 6 µg/mL (≈ 13.7 µM) | 12.2 µg/mL (≈ 28 µM) | 12.7 µg/mL (≈ 29.1 µM) | 3.3 µg/mL (≈ 7.56 µM) | 1.4 µg/mL (≈ 3.21 µM) | > 20 µg/mL | > 20 µg/mL | > 5 µg/mL | 5.8 µg/mL (≈ 13.3 µM) | 7.2 µg/mL (≈ 16.5 µM) | 7 µg/mL (≈ 16 µM) | 8.6 µg/mL (≈ 19.7 µM) |  | 29.3% | more effective to most cancer cell lines | 
N=C(N)NCC(=O)Nc1ccc2c(c1NC(=O)CNC(=N)N)C(=O)c1ccccc1C2=O [Example 10, 1,2-di(guanidinoacetamido)anthraquinone] |  |  |  | excellent effect on activity inhibition | 10.2 µg/mL (≈ 23.4 µM) | 8.9 µg/mL (≈ 20.4 µM) | > 20 µg/mL | > 20 µg/mL | > 20 µg/mL | 3.2 µg/mL (≈ 7.33 µM) | 6.3 µg/mL (≈ 14.4 µM) | > 20 µg/mL | > 5 µg/mL | 1.7 µg/mL (≈ 3.9 µM) | 18 µg/mL (≈ 41.2 µM) | > 20 µg/mL | 6.9 µg/mL (≈ 15.8 µM) | 69.4 µM | 92.3% | more effective to most cancer cell lines | 
